Data reported in EP0652220A1, “CEPHALOSPORIN DERIVATIVE” (TAISHO PHARMACEUTICAL CO. LTD, priority 1992, dated 1994).

Experiments:
[1] = system: Eschelichia coli NIHJ JC-2; test: antibacterial test, agar plate dilution method; assay type: cell-based; conditions: inoculum size 10⁶ cells/ml
Protocol: (§1) The antibacterial test against various bacteria was carried out by the agar plate dilution method (inoculum size : 10⁶ cells/ml), and the results are shown in the following Table 1.

[2] = system: Serratia marcescens IID 618; test: antibacterial test, agar plate dilution method; assay type: cell-based; conditions: inoculum size 10⁶ cells/ml
Protocol: as §1

[3] = system: Enterococcus faecalis CSJ 1212; test: antibacterial test, agar plate dilution method; assay type: cell-based; conditions: inoculum size 10⁶ cells/ml
Protocol: as §1

[4] = system: Klebsiella pneumoniae IFO 3317; test: antibacterial test, agar plate dilution method; assay type: cell-based; conditions: inoculum size 10⁶ cells/ml
Protocol: as §1

[5] = system: Staphylococcus epidermidis sp-al-1; test: antibacterial test, agar plate dilution method; assay type: cell-based; conditions: inoculum size 10⁶ cells/ml
Protocol: as §1

[6] = system: Haemophilus influenzae ATCC 19418; test: antibacterial test, agar plate dilution method; assay type: cell-based; conditions: inoculum size 10⁶ cells/ml
Protocol: as §1

[7] = system: Staphylococcus aureus 209P-JP; test: antibacterial test, agar plate dilution method; assay type: cell-based; conditions: inoculum size 10⁶ cells/ml
Protocol: as §1

[8] = system: Proteus mirabilis IFO 3849; test: antibacterial test, agar plate dilution method; assay type: cell-based; conditions: inoculum size 10⁶ cells/ml
Protocol: as §1

[9] = system: Morganella morganii IID 602; test: antibacterial test, agar plate dilution method; assay type: cell-based; conditions: inoculum size 10⁶ cells/ml
Protocol: as §1

[10] = concentration of the drug in blood after oral administration to mice; assay type: in vivo, male ICR strain mice; design: unit not given here; conditions: 20 mg/kg suspended in 5% gum arabic, bioassay (Bacillus cereus S1101)
Protocol: Three male ICR strain mice (4 weeks old) for each group were administered orally with the test drug, and the change of the concentration of the drug in blood was measured with the lapse of time. Dose of drug: 20 mg/kg (suspended in 5% gum arabic) Quantitative method: Bioassay method (test bacteria: Bacillus cereus S1101)

[11] = mortality after a single intraperitoneal dose in mice; assay type: in vivo, male ICR strain mice; conditions: single dose 4,000 mg/kg intraperitoneal, 50 ml/kg (saline), 3 mice per group, observation for 14 days
Protocol: The mortality after a single dose of the test drug was measured using 3 male ICR strain mice (4 weeks old) for each group. Administration route : intraperitoneal Administration volume : 50 ml/kg (saline) Dose : 4,000 mg/kg Observation period : for 14 days after the administration The results are shown in Table 3.

concentration of the drug in blood ([10]; 0.25 hour after administration)	concentration of the drug in blood ([10]; 0.5 hour after administration)	concentration of the drug in blood ([10]; 1.0 hour after administration)	concentration of the drug in blood ([10]; 2.0 hour after administration)	concentration of the drug in blood ([10]; 4.0 hour after administration)	Compound	antibacterial activity [1]	antibacterial activity [2]	antibacterial activity [3]	antibacterial activity [4]	antibacterial activity [5]	antibacterial activity [6]	antibacterial activity [7]	antibacterial activity [8]	antibacterial activity [9]	Mortality [11]
					C=CC1=C(C(=O)O)N2C(=O)[C@@H](NC(=O)/C(=N\OCC(=O)O)c3csc(N)n3)[C@H]2SC1 [B, Cefixime]	0.39	0.20	>100	0.025	25	0.05	25	0.025	0.20	
14.0	18.4	15.4	8.4	4.0	C#CCSC1=C(C(=O)OCOC(=O)C(C)(C)C)N2C(=O)[C@@H](NC(=O)/C(=N\O)c3csc(N)n3)[C@H]2SC1 [E, pivaloyloxymethyl 7β-{2-(2-aminothiazol-4-yl)-2-[(Z)-hydroxyimino]acetamido}-3-(2-propynyl)thio-3-cephem-4-carboxylate]										
					C=CCSC1=C(C(=O)[O-])N2C(=O)[C@@H](NC(=O)/C(=N\O)c3csc(N)n3)[C@H]2SC1.[Na+] [D, 7β-{2-(2-aminothiazol-4-yl)-2-[(Z)-hydroxyimino]acetamido}-3-allylthio-3-cephem-4-carboxylic acid sodium salt]	0.39	1.56	3.13	0.20	0.20	0.39	0.20	0.20	0.20	2/3
1.8	2.0	2.5	1.2	0.1	C=CC1=C(C(=O)O)N2C(=O)[C@@H](NC(=O)/C(=N\O)c3csc(N)n3)[C@H]2SC1 [C, Cefnidir]	0.39	0.78	1.56	0.10	0.39	0.39	0.39	0.20	0.78	
					C#CCSC1=C(C(=O)[O-])N2C(=O)[C@@H](NC(=O)/C(=N\O)c3csc(N)n3)[C@H]2SC1.[Na+] [A, 7β-{2-(2-aminothiazol-4-yl)-2-[(Z)-hydroxyimino]-acetamido}-3-(2-propynyl)thio-3-cephem-4-carboxylic acid sodium salt]	0.20	0.78	1.56	0.05	0.20	0.20	0.20	0.10	0.10	0/3
